Source: patent publication US8835511B2, “Absorbent articles including an odor control system” (The Procter & Gamble Company, priority 2007, dated 2014)

Tests used:
[1] = Odor unpleasantness of samples exposed to malodorant solution, evaluated by a panel of expert graders; conditions: % relative unpleasantness vs. reference (malodorant solution = 100); 10 ml of 0.1% aqueous ammonia; 16 mg total odor control material; five expert graders, 4 replicates, 25° C.
Procedure: For proving the synergistic effect on odor reduction several test samples are prepared by exposing them to a 0.1% aqueous solution of ammonia, which serves as a test malodorous substance. The first data point in table 2 serves as a benchmark as it represents the degree of unpleasantness of the ammonia solution without added odor control material. Data points 2-3 in table 2 are illustrating the malodor-reducing activity of two exemplary odor control materials alone, specifically alpha-amylcinnamaldehyde as exemplary aldehyde and menthyl acetate as an exemplary odor control material acting on the nose receptors. The last data point 4 in table 2 is illustrating the activity of the odor control system of the present invention. For comparability, two individual odor control materials were mixed at half their amount compared to data points 2-3. Data point 4 was obtained by testing a mixture of alpha-Amylcinnamaldehyde and menthyl acetate. […] Thus, synergistic odor control activity has been proven. Further, odor unpleasantness and pleasantness of these samples was evaluated by a panel of expert graders. In particular, five different expert graders evaluated 4 replicates for each sample. Odor unpleasantness was evaluated by using a scale from −10 to +0, where—10 indicates the max odor unpleasantness, 0 indicates no odor. […]

[2] = Thermogravimetric analysis (TGA), weight loss over time at 40° C.; type: physicochemical; conditions: samples kept at 40° C. for 180 minutes, mixture = menthyl acetate (10%) + silica gel (ex Grace, coded 123)
Procedure: The stabilization effect has been proven by running a Thermogravimetric analysis (TGA) on samples of narrow silica gel treated with 10 weight-% of menthyl acetate. Specifically, the method is based on evaluation of weight loss over time at specific temperature (40° C.). The samples were kept at 40° C. for 180 minutes. In order to have a basis for comparison the TGA analysis was performed on a sample of pure menthyl acetate and a sample of pure silica gel as references together with a sample of menthyl acetate (10%)+silica gel (ex Grace, coded 123).

| Weight Loss [2] [%] | SMILES | Odor unpleasantness [1] [%] |
| --- | --- | --- |
| – | CCCCCC(C=O)=Cc1ccccc1 [Alpha-Amylcinnamaldehyde, alpha-amylcinnamaldehyde] | 64 |
| ~100 | CC(=O)OC1CC(C)CCC1C(C)C (stereo not drawn) [Menthyl acetate, menthyl acetate] | 46 |
